From patent publication US20130130992A1, “DIPEPTIDE DERIVATIVE FOR THE TREATMENT OF CANCER” (ONCOTEST GMBH, priority 2010, published 2013)
Where “and” joins values, the source holds several entries; their conditions need not be identical. Identical values can stand only once. Like-named read-outs stand apart in the source and are kept apart here.

Columns and labels:
BXF 1352L = experiment: Monolayer propidium iodide assay, BXF 1352L; assay type: cell-based; conditions: Homo sapiens, 96 h, Bladder, 4 days of treatment
Source text: (§1) Oncotest GmbH, Germany's proprietary tumor cell line panel comprises 40 cell lines. These cell lines were derived from 15 different tumor histotypes, each represented by 1 to 6 different cell lines. Cell lines were established from cancer of the bladder (3), colon (4), head and neck (1), lung (6), breast (3), pancreas (3), prostate (4), ovary (2), kidney (3), liver (1), stomach (1) and the uteri body (1), as well as from melanoma (3), sarcoma (2) and pleuramesothelioma (3). Out of these 40 cell lines, 24 cell lines were established at Oncotest, from patient-derived tumor xenografts. […]
(§2) Stock solutions of the compound of formula (1) (3.3 mM in DMSO) were prepared and stored in small aliquots (200 μl) at −20° C. […] Each concentration was evaluated in triplicate. […]
(§3) Cells were plated in 96-well flat-bottom microtiter plates at a cell density of 4,000 to 20,000 cells/well. […] After an incubation period of 1-2 hours at room temperature, fluorescence (FU) was measured using the Cytofluor 4000 microplate reader (excitation λ=530 nm, emission λ=620 nm) to quantify the amount of attached viable cells. […] Based on the T/C values, relative IC50 values were determined by non-linear regression (log [conc. of inhibitor] versus response (% T/C)) using the GraphPad Prism® analysis software (Prism 5 for Windows, version 5.01, GraphPad Software Inc., CA). […]

LXFL H 460 = experiment: Monolayer propidium iodide assay, LXFL H 460; assay type: cell-based; conditions: Homo sapiens, NCI-H460, 96 h; LXFL H 460, Lung; 4 days of treatment
Source text: as §1, §2, §3

PXF 1118L = experiment: Monolayer propidium iodide assay, PXF 1118L; assay type: cell-based; conditions: Homo sapiens, 96 h, Pleuramesothelioma, 4 days of treatment
Source text: as §1, §2, §3

UXF 1138L = experiment: Monolayer propidium iodide assay, UXF 1138L; assay type: cell-based; conditions: Homo sapiens, 96 h, Uterus, 4 days of treatment
Source text: as §1, §2, §3

LXFL 1121L = experiment: Monolayer propidium iodide assay, LXFL 1121L; assay type: cell-based; conditions: Homo sapiens, 96 h, Lung, 4 days of treatment
Source text: as §1, §2, §3

SXF SAOS2 = experiment: Monolayer propidium iodide assay, SXF SAOS2; assay type: cell-based; conditions: Homo sapiens, SAOS-2, 96 h; SXF SAOS2, Sarcoma; 4 days of treatment
Source text: as §1, §2, §3

PRXF LNCAP = experiment: Monolayer propidium iodide assay, PRXF LNCAP; assay type: cell-based; conditions: Homo sapiens, 96 h, Prostate, 4 days of treatment
Source text: as §1, §2, §3

RXF 393NL = experiment: Monolayer propidium iodide assay, RXF 393NL; assay type: cell-based; conditions: Homo sapiens, 96 h, Renal, 4 days of treatment
Source text: as §1, §2, §3

CXF HCT 116 = experiment: Monolayer propidium iodide assay, CXF HCT 116; assay type: cell-based; conditions: Homo sapiens, 96 h; CXF HCT 116, Colon; 4 days of treatment
Source text: as §1, §2, §3

RXF 1781L = experiment: Monolayer propidium iodide assay, RXF 1781L; assay type: cell-based; conditions: Homo sapiens, 96 h, Renal, 4 days of treatment
Source text: as §1, §2, §3

[1] = Solubility (physical properties); assay type: physicochemical
LXFA 629L = experiment: Monolayer propidium iodide assay, LXFA 629L; assay type: cell-based; conditions: Homo sapiens, 96 h, Lung, 4 days of treatment
Source text: as §1, §2, §3

PAXF 1657L = experiment: Monolayer propidium iodide assay, PAXF 1657L; assay type: cell-based; conditions: Homo sapiens, 96 h, Pancreas, 4 days of treatment
Source text: as §1, §2, §3

LXFA 526L = experiment: Monolayer propidium iodide assay, LXFA 526L; assay type: cell-based; conditions: Homo sapiens, 96 h, Lung, 4 days of treatment
Source text: as §1, §2, §3

LIXF 575L = experiment: Monolayer propidium iodide assay, LIXF 575L; assay type: cell-based; conditions: Homo sapiens, 96 h, Liver, 4 days of treatment
Source text: as §1, §2, §3

PXF 698L = experiment: Monolayer propidium iodide assay, PXF 698L; assay type: cell-based; conditions: Homo sapiens, 96 h, Pleuramesothelioma, 4 days of treatment
Source text: as §1, §2, §3

SXF TE671 = experiment: Monolayer propidium iodide assay, SXF TE671; assay type: cell-based; conditions: Homo sapiens, TE-671, 96 h; SXF TE671, Sarcoma; 4 days of treatment
Source text: as §1, §2, §3

[2] = system: panel of 40 human tumor cell lines; experiment: Monolayer propidium iodide assay, whole panel; assay type: cell-based; conditions: for IC50: Homo sapiens
Source text: Oncotest GmbH, Germany's proprietary tumor cell line panel comprises 40 cell lines. These cell lines were derived from 15 different tumor histotypes, each represented by 1 to 6 different cell lines. Cell lines were established from cancer of the bladder (3), colon (4), head and neck (1), lung (6), breast (3), pancreas (3), prostate (4), ovary (2), kidney (3), liver (1), stomach (1) and the uteri body (1), as well as from melanoma (3), sarcoma (2) and pleuramesothelioma (3). Out of these 40 cell lines, 24 cell lines were established at Oncotest, from patient-derived tumor xenografts. The other 16 cell lines were either provided by the NCl (Bethesda; MD, USA) or were purchased from ATCC (Rockville, Md., USA) or DSMZ (Braunschweig, Germany).
Cell lines were routinely passaged once or twice weekly and maintained in culture for upto 20 passages. All the cells were grown at 37° C. in a humidified atmosphere with 5% (Carbon Dioxide) CO2 in RPMI 1640 medium supplemented with 10% (v/v) fetal calf serum (FCS) and 0.1 mg/ml gentamicin (medium and all other components from PAA, Colbe, Germany). Authenticity of all cell lines was proven by STR (short tandem repeat) analysis, a PCR based DNA-fingerprinting methodology.
Stock solutions of the compound of formula (1) (3.3 mM in DMSO) were prepared and stored in small aliquots (200 μl) at −20° C. An aliquot of the stock solution was thawed on the day of use and stored at room temperature prior to and during dosing. The subsequent dilutions were done with complete RPMI 1640 cell culture medium as follows: the stock solution was diluted 1:22 followed by serial dilutions finally resulting in a (compared to the test concentration) 15-fold higher concentration. For the final dilution step (1:15), 10 μl/well of the solution was directly added to 140 μl/well culture medium. Compound of formula (1) [also referred as test compound] was tested at 0.00032, 0.001, 0.0032, 0.01, 0.032, 0.1, 0.32, 1, 3.2 and 10 μM. Each concentration was evaluated in triplicate.
A modified Propidium Iodide assay was used to assess the effect of the compound of formula (1) on the growth of the human tumor cell lines and was designed as in reference, Anti-cancer Drugs, 6, 522-532, (1995), the disclosure of which is incorporated by reference for the teaching of the assay.
Cells were plated in 96-well flat-bottom microtiter plates at a cell density of 4,000 to 20,000 cells/well. After a 24 hr recovery period to allow the cells to resume exponential growth, the compound of formula (1) was applied at 10 concentrations in half-log increments in triplicates and treatment continued for 4 days. After 4 days of treatment, cells were next washed with 200 μl phosphate buffer solution (PBS) to remove dead cells, then 200 μl of a solution containing 7 μg/ml propidium iodide (PI) and 0.1% (v/v) Triton X-100 were added to the wells. After an incubation period of 1-2 hours at room temperature, fluorescence (FU) was measured using the Cytofluor 4000 microplate reader (excitation λ=530 nm, emission λ=620 nm) to quantify the amount of attached viable cells. Pharmacological effects on cell proliferation and survival were expressed as Test/Control×100 (% T/C) values, with T and C representing the fluorescence read-outs for wells with and without test compound, respectively, i.e. T/C represents the ratio of viable cell numbers following incubation of cell line with and without test compound. Based on the T/C values, relative IC50 values were determined by non-linear regression (log [conc. of inhibitor] versus response (% T/C)) using the GraphPad Prism® analysis software (Prism 5 for Windows, version 5.01, GraphPad Software Inc., CA). For calculation of mean IC50 values over the 40 cell lines as tested, the geometric mean was selected. If Graph Pad Prism could not calculate reliable IC50 values by non-linear regression, the IC50 value was estimated by visual inspection of the concentration-effect curve.

`CCCC1CCCCCC(O)CC(=O)NC2CSSCC(NC2=O)C(=O)O1` (stereo not shown) [compound of formula (1)] gave an IC50 (BXF 1352L) of 103 nM, an IC50 (LXFL H 460) of 146 nM and an IC50 (PXF 1118L) of 54 nM. It also gave an IC50 (UXF 1138L) of 126 nM, an IC50 (LXFL 1121L) of 47 nM and an IC50 (SXF SAOS2) of 185 nM. For the same compound, the IC50 (PRXF LNCAP) was 122 nM, the IC50 (RXF 393NL) was 323 nM and the IC50 (CXF HCT 116) was 48 nM. The IC50 (RXF 1781L) was 260 nM, the Solubility ([1]; in chloroform and methanol) was “sparingly soluble in chloroform and methanol; and” and the Solubility ([1]; in pyridine, acetic acid, dimethyl sulfoxide) was “Soluble in pyridine, acetic acid, dimethyl sulfoxide;”. The Solubility ([1]; in water) was “insoluble in water”, the IC50 (LXFA 629L) was 40 nM and the IC50 (PAXF 1657L) was 39 nM. It also gave an IC50 (LXFA 526L) of 21 nM, an IC50 (LIXF 575L) of 295 nM and an IC50 (PXF 698L) of 178 nM. For the same compound, the IC50 (SXF TE671) was 82 nM, the “antitumor activity in all cell lines as tested” value ([2]; 0.00032 to 10 μM, 40 cell lines, 15 histotypes) was “concentration-dependent antitumor activity” and the “Tumor selectivity: number of cell lines with individual IC50 < mean IC50” value (shortened to “Tumor selectivity: number of cell lines”) ([2]; Bladder) was 2 out of 3 and 2/3. The “Tumor selectivity: number of cell lines” value ([2]; Breast) was 1/3, the “Tumor selectivity: number of cell lines” value ([2]; Colon) was 3/4 and the IC50 ([2]; 3/3 pancreatic tumor cell lines, read-out: individual IC50, pancreatic tumor cell lines) was less than 60 nM. For the same compound, the IC50 ([2]; 5/6 cell lines derived from lung carcinoma, read-out: individual IC50, lung carcinoma cell lines) was less than 50 nM, the IC50 ([2]; geometric mean over the 40 cell lines, read-out: Mean IC50) was 89 nM and the IC50 ([2]; upper bound for every cell line of the panel, read-out: IC50 achieved for all the 40 cell lines) was less than 330 nM. The “Tumor selectivity: number of cell lines” value ([2]; Kidney) was 0/3.
